This experiment has as its target T1, Human thrombin (Homo sapiens, UniProt P00734).
T1 construct: purchased Sigma Chem Co T 6769
Put plainly: Test A: determination of thrombin clotting time (TT). The format is biochemical. The following applies: concentration of inhibitor that doubles the thrombin clotting time for human plasma. As to the method:
Determination of Thrombin Clotting Time (TT)
Human thrombin (T 6769, Sigma Chem Co) in buffer solution, pH 7.4, 100 μI, and inhibitor solution, 100 μl, were incubated for one min. Pooled normal citrated human plasma, 100 μl, was then added and the clotting time measured in an automatic device (KC 10, Amelung).
The clotting time in seconds was plotted against the inhibitor concentration, and the IC50TT was determined by interpolation.
IC50TT is the concentration of inhibitor in the test that doubles the thrombin clotting time for human plasma.
On to `COCC(C)(C(=O)N1CCCC1C(=O)NCc1ccc(C(N)=NC(=O)OCc2ccccc2)cc1)c1ccccc1` [Example 40, (R,S)-Ph-C(Me)(CH2OMe)-C(O)-Pro-Pab(Z)], for which the IC50 is over 1000 nM. The same measure for `COc1cccc(C(CO)C(=O)N2CCCC2C(=O)NCc2ccc(C(N)=NO)cc2)c1` (single isomer, unassigned) [Example 13, (S)- or (R)-3-Methoxyphenyl-CH(CH2OH)—C(O)-Pro-Pab-OH]: over 1000 nM.

The compound `COc1cccc(C(CO)C(=O)N2CCC2C(=O)NCc2ccc(C(N)=NO)cc2)c1` (single isomer, unassigned) [Example 9, (R)- or (S)-3-Methoxyphenyl-CH(CH2OH)—C(O)-Aze-Pab-OH] gave an IC50 of over 1000 nM.

For the compound `CCC(=O)ON=C(N)c1ccc(CNC(=O)C2CCCN2C(=O)C(CO)c2cccc(OC)c2)cc1` (single isomer, unassigned) [Example 14, (S)- or (R)-3-Methoxyphenyl-CH(CH2OH)—C(O)-Pro-Pab-OC(O)Et], the IC50 is over 1000 nM. The same measure for `COc1cccc(C(CO)C(=O)N2CCCC2C(=O)NCc2ccc(C(N)=NC(=O)OCc3ccccc3)cc2)c1` (single isomer, unassigned) [Example 10, (S)- or (R)-3-Methoxyphenyl-CH(CH2OH)CO-Pro-Pab(Z)]: over 1000 nM.

Regarding `NC(=NO)c1ccc(CNC(=O)C2CCCN2C(=O)C(CO)c2ccccc2)cc1` [Example 8, (R,S)-Ph-CH(CH2OH)—C(O)-Pro-Pab-OH], the IC50 was over 1000 nM.

Source of the values: patent US6838478B2, “Amino acid derivatives and their use as thrombin inhibitors” (AstraZeneca AB, priority 1996, dated 2005).
